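These data come from cells grown in 96-well plates and exposed to compound for 48 hours at five concentrations. GI50 is the concentration that inhibits growth by half.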 Activity calls are given as the source filed them. Cut-off read from the data, not from the text of the source: active = GI50 up to about 1.1 µM and inactive = higher.
Columns and labels:
Test in all cases: growth of human tumour cells (NCI), 48 h
UACC-62 = system: UACC-62
LOX IMVI = system: LOX IMVI
CAKI-1 = system: CAKI-1
MOLT-4 = system: MOLT-4
HCT-15 = system: HCT-15
OVCAR-3 = system: OVCAR-3
OVCAR-4 = system: OVCAR-4
A549 = system: A549
HT-29 = system: HT-29
U-251 = system: U-251
SK-MEL-2 = system: SK-MEL-2
COLO 205 = system: COLO 205
SNB-19 = system: SNB-19
HCC 2998 = system: HCC 2998
K562 = system: K562
TK-10 = system: TK-10
SNB-75 = system: SNB-75

| Structure (SMILES) | GI50 (UACC-62) | GI50 (LOX IMVI) | GI50 (CAKI-1) | GI50 (MOLT-4) | GI50 (HCT-15) [µM] | GI50 (OVCAR-3) | GI50 (OVCAR-4) | GI50 (A549) | GI50 (HT-29) | GI50 (U-251) | GI50 (SK-MEL-2) | GI50 (COLO 205) | GI50 (SNB-19) | GI50 (HCC 2998) | GI50 (K562) | GI50 (TK-10) | GI50 (SNB-75) |
| --- | --- | --- | --- | --- | --- | --- | --- | --- | --- | --- | --- | --- | --- | --- | --- | --- | --- |
| COc1ccccc1/C=N/N=C(\N)NO | 4.21 µM (inactive) | 4.47 µM (inactive) | 7.28 µM (inactive) | 12.6 µM (inactive) | 6.32 | 45.1 µM (inactive) | 38.4 µM (inactive) | 4.76 µM (inactive) | 18.6 µM (inactive) | 48.3 µM (inactive) | 23.8 µM (inactive) | 18.9 µM (inactive) | > 100 µM (inactive) | 4.68 µM (inactive) | 3.65 µM (inactive) |  |  |
| COc1cc(C2C(C(=O)O)=C(C)Oc3cc4c(cc32)OCO4)cc(OC)c1OC (stereo not given) | 11.7 µM (inactive) | 41.3 µM (inactive) | 9.04 µM (inactive) | 21.3 µM (inactive) | 18.5 | 19.3 µM (inactive) | 50.8 µM (inactive) | 45 µM (inactive) | 31.6 µM (inactive) | 36.6 µM (inactive) |  | 23.9 µM (inactive) | 40.6 µM (inactive) |  | 19.9 µM (inactive) | 88.3 µM (inactive) | 14.6 µM (inactive) |
| COc1ccc(S(=O)(=O)N(C)CC(=O)O)cc1 | > 100 µM (inactive) | > 100 µM (inactive) | > 100 µM (inactive) | > 100 µM (inactive) | > 100 | > 100 µM (inactive) | > 100 µM (inactive) | > 100 µM (inactive) | > 100 µM (inactive) | > 100 µM (inactive) | > 100 µM (inactive) | > 100 µM (inactive) | > 100 µM (inactive) | > 100 µM (inactive) | > 100 µM (inactive) | > 100 µM (inactive) | > 100 µM (inactive) |
| CN(c1ccccc1)C(c1ccccc1)C(O)c1ccccc1 (stereo not given) | 17.9 µM (inactive) | 17 µM (inactive) | 20.5 µM (inactive) | 12.8 µM (inactive) | 21.7 | 17.3 µM (inactive) | 18.1 µM (inactive) | 18.6 µM (inactive) | 17.9 µM (inactive) | 17.9 µM (inactive) | 16.7 µM (inactive) | 16.3 µM (inactive) | 16.8 µM (inactive) | 22.9 µM (inactive) | 17.2 µM (inactive) | 24.2 µM (inactive) | 24.1 µM (inactive) |
| COc1ccccc1N1C(=O)/C(=C/c2ccc(N(CCC#N)CCC#N)cc2C)N=C1c1cc([N+](=O)[O-])ccc1Cl |  |  | > 100 µM (inactive) | > 100 µM (inactive) | > 100 | > 100 µM (inactive) | 20.6 µM (inactive) | > 100 µM (inactive) | > 100 µM (inactive) | > 100 µM (inactive) | > 100 µM (inactive) | > 100 µM (inactive) | > 100 µM (inactive) | > 100 µM (inactive) | > 100 µM (inactive) | > 100 µM (inactive) | > 100 µM (inactive) |
| Cc1ccc(S(=O)(=O)OC2CC=CC2)cc1 | > 100 µM (inactive) | > 100 µM (inactive) | > 100 µM (inactive) | > 100 µM (inactive) | > 100 | > 100 µM (inactive) | > 100 µM (inactive) | > 100 µM (inactive) | > 100 µM (inactive) | > 100 µM (inactive) | > 100 µM (inactive) | > 100 µM (inactive) | > 100 µM (inactive) | > 100 µM (inactive) | > 100 µM (inactive) | > 100 µM (inactive) | > 100 µM (inactive) |
| CCN(CC)CCN1C(=O)CC2[C@@H]3CCc4cc(OC)ccc4C3CC[C@]2(C)C1=O (stereo not given in full) | 19.3 µM (inactive) |  |  | > 10 µM (inactive) |  | 56.8 µM (inactive) | > 100 µM (inactive) |  | 18.4 µM (inactive) | 31.6 µM (inactive) | 20.9 µM (inactive) | 19.5 µM (inactive) | > 100 µM (inactive) |  | 15.2 µM (inactive) |  | 33 µM (inactive) |
| CCc1cc(CCC(=O)Nc2ccccc2[N+](=O)[O-])nc(S)n1 | > 100 µM (inactive) | > 100 µM (inactive) |  | > 100 µM (inactive) | > 100 | > 100 µM (inactive) |  | > 100 µM (inactive) | > 100 µM (inactive) | > 100 µM (inactive) | > 100 µM (inactive) | > 100 µM (inactive) | > 100 µM (inactive) |  | > 100 µM (inactive) | > 100 µM (inactive) |  |
| c1ccc2c(c1)[Se]c1ccccc1[Se]2 | > 100 µM (inactive) | > 100 µM (inactive) | 67.1 µM (inactive) | 77.6 µM (inactive) |  | > 100 µM (inactive) | 23.4 µM (inactive) | 53.6 µM (inactive) | > 100 µM (inactive) | 37.5 µM (inactive) | > 100 µM (inactive) | > 100 µM (inactive) | > 100 µM (inactive) |  | > 100 µM (inactive) | 78.5 µM (inactive) | 21.2 µM (inactive) |
